According to ChEMBL document CHEMBL1138055, “Tetraoxane antimalarials and their reaction with Fe(II)” (J Med Chem, 2006):
Where “and” joins values, the source holds several entries; their conditions need not be identical. Identical values can stand only once.

Legend:
PBMC [1] = experiment: Cytotoxicity against human peripheral blood mononuclear cells; format: functional, cell-based
Liver microsomes = experiment: Intrinsic clearance in human liver microsomes; format: ADME, Microsome
Plasmodium falciparum [2] = test system: Plasmodium falciparum
Description: Antimalarial activity against Plasmodium falciparum TM91C235

PBMC [3] = experiment: Selectivity index, IC50 for PBMC/IC50 for Plasmodium falciparum TM91C235; format: functional
EKVX = experiment: Antiproliferative activity against human EKVX cell line after 48 hrs; format: functional; details: Homo sapiens, EKVX, 48 h
PBMC [4] = experiment: Selectivity index, IC50 for PBMC/IC50 for Plasmodium falciparum W2; format: functional
Plasmodium falciparum [5] = test system: Plasmodium falciparum; remark: listed apart in the source
Description: (§1) Antimalarial activity against Plasmodium falciparum W2

Mus musculus [6] = organism: Mus musculus; experiment: Intrinsic clearance in mouse liver microsomes; format: ADME, Microsome
[7] = Half life in mouse liver microsomes; format: ADME, Microsome
786-0 = experiment: Antiproliferative activity against human 786-0 cell line after 48 hrs; format: functional; details: 786-0, 48 h
LOX IMVI = experiment: Antiproliferative activity against human LOX IMVI cell line after 48 hrs; format: functional
PBMC [8] = experiment: Selectivity index, IC50 for PBMC/IC50 for Plasmodium falciparum D6; format: functional
PBMC [9] = experiment: Selectivity index, IC50 for PBMC/LC50 for UO31 cells; format: functional
PBMC [10] = experiment: Cytotoxicity against PHA-stimulated human PBMC; format: functional, cell-based
[11] = Half life in human liver microsomes; format: ADME, Microsome
UO-31 = experiment: Antiproliferative activity against human UO31 cell line after 48 hrs; format: functional; details: Homo sapiens, UO-31, 48 h; for CC50: read-out: LC50 (the source's name)
Plasmodium falciparum [12] = test system: Plasmodium falciparum; remark: listed apart in the source
Description: (§2) Antimalarial activity against Plasmodium falciparum D6

Mus musculus [13] = experiment: Effect on survival of CD1 mice (Mus musculus) infected with Plasmodium berghei KBG173 at 50 mg/kg/day, perorally; format: functional; details: route oral
CAKI-1 = experiment: Antiproliferative activity against human CAKI1 cell line after 48 hrs; format: functional; details: CAKI-1, 48 h
Vero [14] = experiment: Selectivity index, IC50 for VERO cells/IC50 for Plasmodium falciparum W2; format: functional
RPMI-8226 = experiment: Antiproliferative activity against human RPMI8226 cell line after 48 hrs; format: functional
Plasmodium falciparum [15] = experiment: microbe, parasite or virus in culture; details: W2
Description: as §1

SF-268 = experiment: Antiproliferative activity against human SF268 cell line after 48 hrs; format: functional; details: SF-268, 48 h
Mus musculus [16] = experiment: Effect on survival of CD1 mice (Mus musculus) infected with Plasmodium berghei KBG173 at 200 mg/kg/day, perorally; format: functional; details: route oral
Vero [17] = experiment: Cytotoxicity against VERO cells; format: functional, cell-based; details: Chlorocebus sabaeus
NCI-H23 = experiment: Antiproliferative activity against human NCI-H23 cell line after 48 hrs; format: functional; details: NCI-H23, 48 h
COLO 205 = experiment: Antiproliferative activity against human COLO 205 cell line after 48 hrs; format: functional; details: Homo sapiens, COLO 205, 48 h
ACHN = experiment: Antiproliferative activity against human ACHN cell line after 48 hrs; format: functional; details: Homo sapiens, ACHN, 48 h
HOP-62 = experiment: Antiproliferative activity against human HOP62 cell line after 48 hrs; format: functional; details: Homo sapiens, HOP-62, 48 h
Mus musculus [18] = experiment: Effect on survival of CD1 mice (Mus musculus) infected with Plasmodium berghei KBG173 at 600 mg/kg/day, perorally; format: functional, organism-based; design: route oral; details: route oral
TK-10 = experiment: Antiproliferative activity against human TK10 cell line after 48 hrs; format: functional; details: TK-10, 48 h
Plasmodium falciparum [19] = experiment: microbe, parasite or virus in culture; details: D6
Description: as §2

Vero [20] = experiment: Selectivity index, IC50 for VERO cells/IC50 for Plasmodium falciparum D6; format: functional
IGROV-1 = experiment: Antiproliferative activity against human IGROV1 cell line after 48 hrs; format: functional; details: Homo sapiens, IGROV-1, 48 h
Vero [21] = experiment: Selectivity index, IC50 for VERO cells/LC50 for UO31 cells; format: functional
NCI-H460 = experiment: Antiproliferative activity against human NCI-H460 cell line after 48 hrs; format: functional; details: NCI-H460, 48 h
[22] = read-out: LC50 (the source's name)

SMILES: CC(=O)O[C@H]1C[C@H]2[C@@H]([C@H](OC(C)=O)C[C@@H]3CC4(CC[C@@]32C)OOC2(CCC(C(=O)Nc3ccccc3)CC2)OO4)[C@@H]2CC[C@H]([C@H](C)CCC(=O)Nc3ccccc3)[C@@]12C (stereo in doubt; 13)
- IC50 (PBMC [1]): > 200 µM
- CL (Liver microsomes): < 0.6 mL/min/g
- IC50 (Plasmodium falciparum [2]): 0.0081 µM
- IC90 (Plasmodium falciparum [2]): 0.0192 µM
- Selectivity index (PBMC [3]): >25000
- GI50 (EKVX): 0.9 µM
- LC50 (EKVX): > 100 µM
- TGI (EKVX): > 100 µM
- Selectivity index (PBMC [4]): >18000
- IC50 (Plasmodium falciparum [5]): 0.0114 µM
- IC90 (Plasmodium falciparum [5]): 0.0208 µM
- CL (Mus musculus [6]): < 0.6 mL/min/g
- half-life [7]: > 2 h
- GI50 (786-0): 0.45 µM
- LC50 (786-0): 67.9 µM
- TGI (786-0): 14.2 µM
- GI50 (LOX IMVI): 0.37 µM
- TGI (LOX IMVI): 1.69 µM
- CC50 (LOX IMVI; [22]): 7.15 µM
- Selectivity index (PBMC [8]): >33000
- Selectivity index (PBMC [9]): >392
- IC50 (PBMC [10]): > 200 µM
- half-life [11]: > 2 h
- GI50 (UO-31): 0.05 µM
- TGI (UO-31): 0.19 µM
- CC50 (UO-31): 0.51 µM
- IC50 (Plasmodium falciparum [12]): 0.0062 µM
- IC90 (Plasmodium falciparum [12]): 0.0113 µM

SMILES: CCCC(=O)CC[C@@H](C)[C@H]1CC[C@H]2[C@@H]3[C@H](OC(C)=O)C[C@@H]4CC5(CC[C@]4(C)[C@H]3C[C@H](OC(C)=O)[C@]12C)OOC1(CCCCC1)OO5
- Activity (Mus musculus [13]): 14.2 days
- GI50 (CAKI-1): 0.18 µM
- TGI (CAKI-1): 0.4 µM
- CC50 (CAKI-1; [22]): 0.91 µM
- Selectivity index (Vero [14]): 1763
- TGI (RPMI-8226; Homo sapiens, RPMI-8226, 48 h): 3.47 µM
- CC50 (RPMI-8226; [22]): 1.28 µM and 9.37 µM
- IC50 (Plasmodium falciparum [15]): 0.0068 µM
- GI50 (SF-268): 1.57 µM
- TGI (SF-268): 3.9 µM
- CC50 (SF-268; [22]): 9.68 µM
- Activity (Mus musculus [16]): 24.4 days
- IC50 (Vero [17]): 12.3 µM
- GI50 (NCI-H23): 0.61 µM
- TGI (NCI-H23): 1.99 µM
- CC50 (NCI-H23; [22]): 4.64 µM
- GI50 (COLO 205): 1.77 µM
- TGI (COLO 205): 3.72 µM
- CC50 (COLO 205; [22]): 7.82 µM
- GI50 (ACHN): 1.34 µM
- LC50 (ACHN): 5.12 µM
- TGI (ACHN): 2.62 µM
- GI50 (HOP-62): 0.44 µM
- TGI (HOP-62): 1.72 µM
- CC50 (HOP-62; [22]): 5.4 µM
- Activity (Mus musculus [18]): 28 days
- GI50 (TK-10): 1.67 µM
- TGI (TK-10): 3.62 µM
- CC50 (TK-10; [22]): 7.84 µM
- IC50 (Plasmodium falciparum [19]): 0.0148 µM
- Selectivity index (Vero [20]): 823
- GI50 (UO-31): < 0.01 µM
- TGI (UO-31): < 0.01 µM
- CC50 (UO-31): 0.017 µM
- GI50 (IGROV-1): 0.19 µM
- TGI (IGROV-1): 0.46 µM
- CC50 (IGROV-1; [22]): 1.36 µM
- Selectivity index (Vero [21]): 726
- GI50 (NCI-H460): 0.18 µM
- TGI (NCI-H460): 0.59 µM
- CC50 (NCI-H460; [22]): 2.6 µM
